Columns and labels:
[1] = tested on: Bel-7402; test: Antiproliferative activity against human Bel7402 cells assessed as reduction in cell viability by MTT assay; type: functional, cell-based
[2] = tested on: A2780; test: Antiproliferative activity against human A2780 cells assessed as reduction in cell viability by MTT assay; type: functional, cell-based
[3] = tested on: A549; test: Antiproliferative activity against human A549 cells assessed as reduction in cell viability by MTT assay; type: functional, cell-based
[4] = tested on: MCF7; test: Antiproliferative activity against human MCF7 cells assessed as reduction in cell viability by MTT assay; type: functional, cell-based
[5] = tested on: COLO 205; test: Antiproliferative activity against human COLO205 cells assessed as reduction in cell viability incubated for 48 hrs by MTT assay; type: functional, cell-based; settings: COLO 205, 48 h
[6] = molecular target: ATP-dependent translocase ABCB1 (Homo sapiens, UniProt P08183); test: Induction of P-gp in human LS180 cells assessed as […] in intracellular accumulation of Rh123 at 100 nM using Rho123 as substrate preincubated for 48 hrs followed by addition of Rh123 and measured after 90 mins by fluorescence based assay relative to control; type: cell-based; settings: ls180, 48 h preincubation, then 1.5 h with Rh123, 0.1 µM
Chain of ATP-dependent translocase ABCB1 (P08183 whole entry): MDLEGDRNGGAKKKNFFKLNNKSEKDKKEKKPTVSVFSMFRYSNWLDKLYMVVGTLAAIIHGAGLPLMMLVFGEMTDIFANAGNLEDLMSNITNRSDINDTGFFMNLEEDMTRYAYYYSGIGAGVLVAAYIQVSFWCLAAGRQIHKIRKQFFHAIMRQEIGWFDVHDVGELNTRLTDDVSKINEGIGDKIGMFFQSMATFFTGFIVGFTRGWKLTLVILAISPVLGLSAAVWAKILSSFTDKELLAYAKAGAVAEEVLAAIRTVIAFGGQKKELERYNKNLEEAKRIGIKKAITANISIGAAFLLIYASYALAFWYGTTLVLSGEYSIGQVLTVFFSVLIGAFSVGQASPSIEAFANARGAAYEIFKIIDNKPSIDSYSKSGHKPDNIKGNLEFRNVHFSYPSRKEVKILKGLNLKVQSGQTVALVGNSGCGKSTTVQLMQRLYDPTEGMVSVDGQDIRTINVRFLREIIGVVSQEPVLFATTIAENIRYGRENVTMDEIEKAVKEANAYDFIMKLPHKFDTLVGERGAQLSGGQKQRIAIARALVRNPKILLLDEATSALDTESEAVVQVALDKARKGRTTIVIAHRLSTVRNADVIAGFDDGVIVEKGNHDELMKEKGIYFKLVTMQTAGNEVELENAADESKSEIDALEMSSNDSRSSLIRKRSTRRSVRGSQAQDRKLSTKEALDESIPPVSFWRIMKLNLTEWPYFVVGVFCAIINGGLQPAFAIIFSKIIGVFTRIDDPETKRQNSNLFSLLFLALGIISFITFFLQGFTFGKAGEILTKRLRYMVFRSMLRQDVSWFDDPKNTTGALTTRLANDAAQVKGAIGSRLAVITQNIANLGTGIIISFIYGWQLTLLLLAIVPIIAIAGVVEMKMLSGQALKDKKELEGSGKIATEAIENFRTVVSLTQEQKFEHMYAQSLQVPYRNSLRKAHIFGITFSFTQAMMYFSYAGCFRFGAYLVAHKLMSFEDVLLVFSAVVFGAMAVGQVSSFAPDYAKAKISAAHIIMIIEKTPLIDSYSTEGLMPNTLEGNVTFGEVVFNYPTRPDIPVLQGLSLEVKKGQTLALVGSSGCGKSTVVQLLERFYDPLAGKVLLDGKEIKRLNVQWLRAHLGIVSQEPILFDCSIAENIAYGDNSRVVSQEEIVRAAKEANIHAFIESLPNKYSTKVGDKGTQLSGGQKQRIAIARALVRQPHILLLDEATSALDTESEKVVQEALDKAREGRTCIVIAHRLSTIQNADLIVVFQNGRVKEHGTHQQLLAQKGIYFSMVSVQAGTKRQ

[7] = tested on: HCT-116; test: Antiproliferative activity against human HCT116 cells assessed as reduction in cell viability incubated for 48 hrs by MTT assay; type: functional, cell-based; settings: HCT-116, 48 h
[8] = tested on: HCT-15; test: Antiproliferative activity against human HCT15 cells assessed as reduction in cell viability incubated for 24 hrs by SRB assay; type: functional, cell-based; settings: HCT-15, 24 h
[9] = tested on: SK-OV-3; test: Antiproliferative activity against human SKOV3 cells assessed as reduction in cell viability incubated for 24 hrs by SRB assay; type: functional, cell-based; settings: SK-OV-3, 24 h
[10] = tested on: A549; test: Antiproliferative activity against human A549 cells assessed as reduction in cell viability incubated for 24 hrs by SRB assay; type: functional, cell-based; settings: A549, 24 h
[11] = tested on: SK-MEL-2; test: Antiproliferative activity against human SK-MEL-2 cells assessed as reduction in cell viability incubated for 24 hrs by SRB assay; type: functional, cell-based; settings: SK-MEL-2, 24 h
[12] = tested on: MCF7; test: Antiproliferative activity against human MCF7 cells assessed as reduction in cell viability incubated for 24 hrs by SRB assay; type: functional, cell-based; settings: MCF7, 24 h
[13] = tested on: KB 3-1; test: Antiproliferative activity against human KB3-1 cells assessed as reduction in cell viability after 96 hrs by methylene blue staining based spectrophotometric method; type: functional; settings: KB 3-1, 96 h
[14] = Antiproliferative activity against human KB-8-5-11 cells assessed as reduction in cell viability after 96 hrs by methylene blue staining based spectrophotometric method; type: functional
[15] = tested on: MDA-MB-231; test: Antiproliferative activity against human MDA-MB-231 cells assessed as reduction in cell viability; type: functional, cell-based
[16] = tested on: DLD-1; test: Antiproliferative activity against human DLD1 cells assessed as reduction in cell viability; type: functional, cell-based
[17] = tested on: LoVo; test: Antiproliferative activity against human LoVo cells assessed as reduction in cell viability; type: functional, cell-based

Row | Structure (SMILES) | IC50 [5] | Activity [6] | IC50 [7] | IC50 [8] | IC50 [9] | IC50 [10] | IC50 [11] | IC50 [12] | also measured
1 | CNc1ccc2c(cc1=O)[C@@H](NC(=O)CCC(=O)OCCCCCCO[N+](=O)[O-])CCc1cc(OC)c(OC)c(OC)c1-2 |  |  |  |  |  |  |  |  | IC50 [1]: 86 nM; IC50 [2]: 109 nM; IC50 [3]: 205 nM; IC50 [4]: 95 nM
2 | CNc1ccc2c(cc1=O)[C@@H](NC(=O)CCC(=O)OCCO[N+](=O)[O-])CCc1cc(OC)c(OC)c(OC)c1-2 |  |  |  |  |  |  |  |  | IC50 [1]: 202 nM; IC50 [2]: 104 nM; IC50 [3]: 106 nM; IC50 [4]: 103 nM
3 | CNc1ccc2c(cc1=O)[C@@H](NC(=O)CCC(=O)OC/C=C/CO[N+](=O)[O-])CCc1cc(OC)c(OC)c(OC)c1-2 |  |  |  |  |  |  |  |  | IC50 [1]: 120 nM; IC50 [2]: 205 nM; IC50 [3]: 135 nM; IC50 [4]: 202 nM
4 | COc1cc2c(c(OC)c1OC)-c1ccc(N3CCN(C)CC3)c(=O)cc1[C@@H](NC(C)=O)CC2 | 1000 nM | 102.82% | 3000 nM |  |  |  |  |  | 
5 | CCCCCCCCCCCCCC[C@H]1OC(C)(C)O[C@H]1[C@@H](NC(=O)OC(C)(C)C)C(=O)N[C@H]1CCc2cc(OC)c(OC)c(OC)c2-c2ccc(SC)c(=O)cc21 |  |  |  | 204 nM | 676 nM | 228 nM | 130 nM | 303 nM | 
6 | COc1cc2c(c(OC)c1OC)-c1ccc(SC)c(=O)cc1[C@@H](NC(=O)CC[C@H](NC(=O)c1ccc(NCc3cnc4nc(N)nc(O)c4n3)cc1)C(=O)O)CC2 |  |  |  | 1160 nM |  | 4960 nM |  | 697 nM | 
7 | C=C(C)[C@@H]1CC=C(C(=O)N[C@H]2CCc3cc(OC)c(OC)c(OC)c3-c3ccc(SC)c(=O)cc32)CC1 |  |  |  | 8.1 nM | 17.2 nM | 7.5 nM | 17.9 nM | 5.2 nM | 
8 | COc1cc2c(c(OC)c1OC)-c1ccc(N3CCOCC3)c(=O)cc1[C@@H](NC(C)=O)CC2 | 1200 nM | 95.97% | 5000 nM |  |  |  |  |  | 
9 | COc1cc2c(c(OC)c1OC)-c1ccc(N3CCC4c5ccccc5NC4C3)c(=O)cc1[C@@H](NC(C)=O)CC2 (some centres not stated) | 800 nM | 119.7% | 3000 nM |  |  |  |  |  | 
10 | COc1cc2c(c(OC)c1OC)-c1ccc(N3CCC(c4ccccc4)CC3)c(=O)cc1[C@@H](NC(C)=O)CC2 | 800 nM | 101.03% | 1000 nM |  |  |  |  |  | 
11 | COc1cc2c(c(OC)c1OC)-c1ccc(N3CCC[C@@H]3CO)c(=O)cc1[C@@H](NC(C)=O)CC2 | 8000 nM | 86.53% | 10000 nM |  |  |  |  |  | 
12 | COc1cc2c(c(OC)c1OC)-c1ccc(SC)c(=O)cc1[C@@H](NC(=O)[C@H](O)[C@@H](O)[C@H](O)[C@H](O)CO)CC2 |  |  |  | 18.7 nM | 29.8 nM | 14.2 nM | 12.3 nM | 7.8 nM | 
13 | COc1cc2c(c(OC)c1OC)-c1ccc(Nc3ccc(Cl)c(C(F)(F)F)c3)c(=O)cc1[C@@H](NC(C)=O)CC2 | 30 nM | 90.29% | 40 nM |  |  |  |  |  | 
14 | COc1c(COC2CCCCO2)c2c(c(OC)c1OC)-c1ccc(OC)c(=O)cc1[C@@H](NC(C)=O)CC2 (some centres not stated) |  |  |  |  |  |  |  |  | IC50 [13]: > 1000 nM; IC50 [14]: > 1000 nM
15 | COc1cc2c(c(OC)c1OC)-c1ccc(Nc3ccc(F)c(Cl)c3)c(=O)cc1[C@@H](NC(C)=O)CC2 | 500 nM | 90.05% | 700 nM |  |  |  |  |  | 
16 | CNc1ccc2c(cc1=O)[C@@H](NC(=O)CCC(=O)OCCCCCO[N+](=O)[O-])CCc1cc(OC)c(OC)c(OC)c1-2 |  |  |  |  |  |  |  |  | IC50 [1]: 85 nM; IC50 [2]: 96 nM; IC50 [3]: 86 nM; IC50 [4]: 100 nM
17 | COc1cc2c(c(OC)c1OC)-c1ccc(SC)c(=O)cc1[C@@H](NC(=O)Cc1ccccc1Nc1c(Cl)cccc1Cl)CC2 |  |  |  | 306 nM | 1500 nM | 520 nM | 1050 nM | 296 nM | 
18 | COc1cc(/C=C/C(=O)N[C@H]2CCc3cc(OC)c(OC)c(OC)c3-c3ccc(SC)c(=O)cc32)ccc1O |  |  |  | 10.8 nM | 24.8 nM | 5.8 nM | 16.6 nM | 5.6 nM | 
19 | COc1cc2c(c(OC)c1OC)-c1ccc(OC)c(=O)cc1[C@@H](NC(C)=O)CC2 [COLCHICINE] |  | 62.91% | 50 nM | 9 nM | 18 nM | 21 nM | 6 nM | > 300 nM | IC50 [15]: 25.3 nM
20 | COc1cccc2c1C(=O)c1c(O)c3c(c(O)c1C2=O)C[C@@](O)(C(=O)CO)C[C@@H]3O[C@H]1C[C@H](N)[C@H](O)[C@H](C)O1 [DOXORUBICIN] |  |  |  | 16.4 nM | 34.2 nM | 14.7 nM | 11.7 nM |  | IC50 [15]: 936 nM; IC50 [16]: 511 nM; IC50 [17]: 520 nM
